Source: article PMC4747383, “Design of a peptidic inhibitor that targets the dimer interface of a prototypic galectin” (Oncotarget, 2015)

Tests used:
[1] = tested on: recombinant hGal-1; test: Disruption of hGal-1 dimers, native gel electrophoresis/Western blot; format: biochemical, human; conditions: recombinant hGal-1, 20 mM potassium phosphate pH 7.1, films overexposed, three independent experiments
Text: To measure the ability of the peptides to disrupt the formation of hGal-7 dimers, we used mild denaturing native gel electrophoresis, a commonly used approach to visualize monomer-dimer equilibrium (Fig. 1A and Supplementary Fig. S1). […] This specificity at disrupting hGal-7 dimer formation is provided by distinct three-dimensional arrangements between otherwise very similar galectin homologues. Indeed, while all monomeric galectins reveal identical topologies, dimer formation in hGal-7 proceeds through a “back-to-back” topology of the monomers while other galectins, including hGal-1 and hGal-2, adopt a “side-by-side” structural arrangement (Fig. 1B). This structural organization provides additional means to specifically target and disrupt galectin function.
Incubation of the recombinant B. hGal-1 and C. hGal-2 with hGal-7(129–135) was performed in the same potassium phosphate buffer. The effect of hGal-7(129–135) on the monomeric and dimeric forms of hGal-7/hGal-1/hGal-2 was assessed by Western blotting in native conditions with respective antibodies. The hGal-1/hGal-2 films were overexposed. PACAP28–38 was the control peptide used in order to ensure the specificity of hGal-7(129–135). […]
Human Gal-7 cDNA was cloned into pET-22b(+) using NdeI and HindIII restriction enzymes. […] Purified fractions were analyzed by SDS-PAGE. […]

[2] = tested on: PBMCs; test: hGal-7-induced apoptosis of PBMCs, PARP-1 cleavage (Western blot); format: cell-based, human; conditions: increasing hGal-7 pre-incubated with peptide 200 μM, 4 h at 37°C, serum-free, two independent experiments
Procedure: The Jurkat cell line was maintained in RPMI 1640 medium. The culture medium was supplemented with 10% [v/v] fetal bovine serum, 2 mmol/L L-glutamine, 10 mM HEPES buffer, and 1 mM sodium pyruvate. All cell culture products were purchased from Life Technologies (Burlington, ON, Canada). Isolation of peripheral mononuclear cell (PBMCs) was performed as previously described.
For the apoptosis tests, whole-cell extracts were homogenized and resuspended in RIPA buffer (Thermo Fisher Scientific, Rockford, IL, USA) containing protease inhibitors (Roche, Laval, QC, Canada). Equal amounts of whole-cell extracts (25 μg) were separated on SDS-PAGE and transferred onto nitrocellulose membranes (Bio-Rad Laboratories). The membranes were first blocked with 5% milk [w/v] in TBS/0.5% Tween 20 [v/v] for 1 h at room temperature and subsequently blotted overnight in a solution of TBS containing 3% BSA [w/v] and 0.5% Tween 20 [v/v]. The following antibodies were used: a rabbit anti-poly-(ADP-ribose) polymerase (PARP)-1 (p25) polyclonal antibody (1:5000; Epitomics, Burlingame, CA, USA) and a mouse anti-β-actin (1:10000; Sigma-Aldrich, St. Louis, MO, USA). […]
concentrations of recombinant human gaI-7 were pre-incubated with the hGaI-7129–135 (200 μM) prior to its addition to A. Jurkat T cells or B. PBMCs. Apoptosis wa, measured after 4 h at 37°C in serum·free conditions. […]

## H-LDSVRIP-NH2 [hGal-7(129–135), peptide corresponding to hGal-7 segment between residues 129–135]
[1]
  disruption of hGal-1 homodimers: No such effect was observed
[2]
  inhibition of hGal-7-induced apoptosis in PBMCs (PARP-1 cleavage): also observed using human peripheral blood monocytes
[2]; listed as hGaI-7129–135
  inhibition of hGal-7-induced apoptosis in PBMCs (PARP-1 cleavage): decreases gaI-7-induced apoptosis
